In PubChem BioAssay AID328 (DTP/NCI, 2004):
Inconclusive results and toxic doses are left out. Rule for the calls: active = survival T/C of 150% or more; inactive = T/C below 125% in these data.

Tested on: BDF1 mice, P388 leukemia ip, median survival T/C
Experiment: NCI In Vivo Anticancer Drug Screen. Data for tumor model P388 Leukemia (intraperitoneal) in B6D2F1 (BDF1) mice
Conditions: endpoint: median survival time, higher = longer survival
Summary of the method: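 Steps: implant the tumour, treat one group with compound and another with vehicle, record survival, then divide treated by control.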

[1] = dose: 25.0 mg/kg/injection, schedule: Q01DX009 (ip), vehicle: Klucel (hydroxypropylcellulose) (HPC)
[2] = dose: 50.0 mg/kg/injection, schedule: Q01DX009 (ip), vehicle: Klucel (hydroxypropylcellulose) (HPC)
[3] = dose: 100.0 mg/kg/injection, schedule: Q04DX003 (ip), vehicle: Klucel (hydroxypropylcellulose) (HPC)
[4] = dose: 200.0 mg/kg/injection, schedule: Q04DX003 (ip), vehicle: Klucel (hydroxypropylcellulose) (HPC)
[5] = dose: 400.0 mg/kg/injection, schedule: Q04DX003 (ip), vehicle: Klucel (hydroxypropylcellulose) (HPC)
[6] = dose: 12.5 mg/kg/injection, schedule: Q01DX009 (ip), vehicle: saline with Tween-80
[7] = dose: 50.0 mg/kg/injection, schedule: Q01DX009 (ip), vehicle: saline
[8] = dose: 100.0 mg/kg/injection, schedule: Q01DX009 (ip), vehicle: saline
[9] = dose: 200.0 mg/kg/injection, schedule: Q01DX009 (ip), vehicle: saline
[10] = dose: 6.25 mg/kg/injection, schedule: Q01DX009 (ip), vehicle: saline with Tween-80
[11] = dose: 25.0 mg/kg/injection, schedule: Q01DX009 (ip), vehicle: saline with Tween-80
[12] = dose: 25.0 mg/kg/injection, schedule: Q04DX003 (ip), vehicle: saline with Tween-80
[13] = dose: 50.0 mg/kg/injection, schedule: Q04DX003 (ip), vehicle: saline with Tween-80
[14] = dose: 100.0 mg/kg/injection, schedule: Q04DX003 (ip), vehicle: saline with Tween-80
[15] = dose: 50.0 mg/kg/injection, schedule: Q01DX009 (ip), vehicle: saline with Tween-80
[16] = dose: 100.0 mg/kg/injection, schedule: Q01DX009 (ip), vehicle: saline with Tween-80
[17] = dose: 200.0 mg/kg/injection, schedule: Q01DX009 (ip), vehicle: saline with Tween-80
[18] = dose: 200.0 mg/kg/injection, schedule: Q04DX003 (ip), vehicle: saline with Tween-80

Measured: T/C

C[C@]1(O)CC[C@H]2[C@@H]3CCC4=CC(=O)CC[C@]4(C)[C@@]3(F)C(=O)C[C@@]21C
inactive: dose: 12.5 mg/kg/injection, schedule: Q01DX009 (ip), vehicle: Klucel (hydroxypropylcellulose) (HPC) 104 % of control | [1] 109 % of control | [2] 90 % of control | [3] 100 % of control | [4] 100 % of control | [5] 104 % of control

O=[N+]([O-])c1cccc2c[n+](Cc3ccc(Br)cc3)ccc12
inactive: [6] 123 % of control

NC(Cn1ccc(=O)c(O)c1)C(=O)O (stereo not drawn)
inactive: [7] 95 % of control | [8] 100 % of control | [9] 108 % of control | dose: 400.0 mg/kg/injection, schedule: Q01DX009 (ip), vehicle: saline 122 % of control

CC(C)=CCC/C(C)=C/Cn1cnc2c(ncn2C2OC(CO)C(O)C2O)c1=O (stereo not drawn)
inactive: dose: 12.5 mg/kg/injection, schedule: Q04DX003 (ip), vehicle: saline 110 % of control | dose: 25.0 mg/kg/injection, schedule: Q04DX003 (ip), vehicle: saline 105 % of control | dose: 50.0 mg/kg/injection, schedule: Q04DX003 (ip), vehicle: saline 114 % of control

Cc1c(O)ccc([N+](=O)[O-])c1O
inactive: [10] 91 % of control | dose: 6.25 mg/kg/injection, schedule: Q04DX003 (ip), vehicle: saline with Tween-80 104 % of control | [6] 100 % of control | dose: 12.5 mg/kg/injection, schedule: Q04DX003 (ip), vehicle: saline with Tween-80 91 % of control | [11] 91 % of control | [12] 104 % of control

NC(=O)NC(=O)/C=C/C(=O)O
inactive: [12] 91 % of control | [13] 100 % of control | [14] 91 % of control

COc1ccc(CNCC(=O)OCc2ccccc2)cc1
inactive: [11] 92 % of control | [15] 101 % of control | [16] 88 % of control | [14] 111 % of control | [17] 102 % of control | [18] 109 % of control

COS(=O)(=O)Oc1ccc2ccccc2c1
inactive: [1] 98 % of control | [2] 100 % of control | dose: 100.0 mg/kg/injection, schedule: Q01DX009 (ip), vehicle: Klucel (hydroxypropylcellulose) (HPC) 108 % of control

C[C@]12C=CC(=O)C=C1CC[C@@H]1[C@@H]2CC[C@]2(C)OC(=O)CC[C@@H]12
inactive: [15] 100 % of control | [16] 86 % of control | [14] 90 % of control | [17] 90 % of control | [18] 90 % of control

O=S(c1ccccc1)c1c(Cl)c(Cl)nc(Cl)c1Cl (stereo not drawn)
inactive: dose: 2.75 mg/kg/injection, schedule: Q01DX009 (ip), vehicle: saline with Tween-80 109 % of control | dose: 5.5 mg/kg/injection, schedule: Q01DX009 (ip), vehicle: saline with Tween-80 118 % of control | dose: 11.0 mg/kg/injection, schedule: Q01DX009 (ip), vehicle: saline with Tween-80 113 % of control | [12] 113 % of control | [13] 121 % of control

[O-][n+]1c(-c2ccccc2)c(C(O)c2ccccc2)nc2ccccc21 (stereo not drawn)
inactive: dose: 100.0 mg/kg/injection, schedule: Q01DX001 (ip), vehicle: saline with Tween-80 105 % of control | dose: 200.0 mg/kg/injection, schedule: Q01DX001 (ip), vehicle: saline with Tween-80 94 % of control | dose: 400.0 mg/kg/injection, schedule: Q01DX001 (ip), vehicle: saline with Tween-80 96 % of control

CC(=O)Oc1cc2cnc3c4cc(OC(C)=O)c(OC(C)=O)cc4ccc3c2cc1OC(C)=O
inactive: dose: 0.62 mg/kg/injection, schedule: Q01DX009 (ip), vehicle: saline 106 % of control | dose: 1.25 mg/kg/injection, schedule: Q01DX009 (ip), vehicle: saline 94 % of control | dose: 2.5 mg/kg/injection, schedule: Q01DX009 (ip), vehicle: saline 97 % of control | dose: 5.0 mg/kg/injection, schedule: Q01DX009 (ip), vehicle: saline 86 % of control | dose: 20.0 mg/kg/injection, schedule: Q01DX009 (ip), vehicle: saline 109 % of control | dose: 80.0 mg/kg/injection, schedule: Q01DX009 (ip), vehicle: saline 86 % of control | dose: 120.0 mg/kg/injection, schedule: Q01DX009 (ip), vehicle: saline 90 % of control | dose: 240.0 mg/kg/injection, schedule: Q01DX009 (ip), vehicle: saline 95 % of control

COc1cc2c(cc1OC)C(CN)C2 (stereo not drawn)
inactive: [7] 98 % of control | [8] 96 % of control | [9] 98 % of control

CC1NNC(=O)C1(Br)Br (stereo not drawn)
inactive: dose: 1.56 mg/kg/injection, schedule: Q01DX009 (ip), vehicle: gum acacia 113 % of control | dose: 3.12 mg/kg/injection, schedule: Q01DX009 (ip), vehicle: gum acacia 113 % of control | dose: 6.25 mg/kg/injection, schedule: Q01DX009 (ip), vehicle: gum acacia 94 % of control

Cc1ccc(NC(=S)NC(=O)c2ccco2)cc1Cl
inactive: [3] 100 % of control | [4] 120 % of control | [5] 90 % of control

C=CC(=O)NCCCC(=O)O
inactive: [7] 94 % of control | [8] 91 % of control | [9] 100 % of control

O=c1c2ccccc2nc(-c2ccccc2)n1-c1nnc(C(F)(F)F)s1
inactive: dose: 3.12 mg/kg/injection, schedule: Q01DX009 (ip), vehicle: saline with Tween-80 101 % of control | [10] 105 % of control | [6] 91 % of control
